Experimental data taken from PMC2219262 (The Journal of General Physiology, 1996).
Values joined by “and” are separate entries in the source; they are usually repeats but may differ in a detail not shown here. Identical values can stand only once. “Also recorded” adds a separate entry of the source. Like-named read-outs stand apart in the source and are kept apart here.

How the values were obtained:
IK in GH3 cells = assay type: cell-based, rat; conditions: read-out: apparent KD for IK block
Ca2+ current (ICa) = assay type: cell-based, squid Loligo opalescens
Na+ current (INa) = Na+ current (INa) (Doryteuthis opalescens, UniProt Q25377); assay type: cell-based, squid Loligo opalescens
[1] = molecular target: K+ current (IK), K channels (Doryteuthis opalescens, UniProt Q25376); assay type: cell-based, squid Loligo opalescens
[2] = ref Kaufman et al., 1975; cited from earlier work
pKa of methadone = assay type: physicochemical; conditions: implied by pKa
[3] = Fig. 12 A: 100 μM, +60 mV, 10K//100K, model C
[4] = Fig. 4: 100 μM, +80 mV, 100K//200K
[5] = Fig. 12 B: 10 °C, 100 μM, +60 mV, 10K//50K
[6] = Fig. 12 B: 20 °C, 100 μM, +60 mV, 10K//50K

Chain of K+ current (IK), K channels (Q25376 1-488): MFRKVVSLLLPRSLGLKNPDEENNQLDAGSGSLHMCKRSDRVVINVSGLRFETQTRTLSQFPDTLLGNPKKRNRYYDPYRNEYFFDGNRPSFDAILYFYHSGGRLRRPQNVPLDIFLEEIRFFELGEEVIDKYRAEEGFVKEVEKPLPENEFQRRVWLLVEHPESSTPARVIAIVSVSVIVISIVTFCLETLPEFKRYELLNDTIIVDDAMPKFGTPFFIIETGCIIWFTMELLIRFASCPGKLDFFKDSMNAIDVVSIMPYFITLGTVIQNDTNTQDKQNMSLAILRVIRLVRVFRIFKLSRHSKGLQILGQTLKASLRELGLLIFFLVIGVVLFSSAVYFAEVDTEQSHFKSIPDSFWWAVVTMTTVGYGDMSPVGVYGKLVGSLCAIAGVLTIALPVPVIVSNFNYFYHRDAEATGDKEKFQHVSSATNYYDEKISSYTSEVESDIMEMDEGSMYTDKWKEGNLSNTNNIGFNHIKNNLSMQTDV
Chain of Na+ current (INa) (Q25377 1-1784): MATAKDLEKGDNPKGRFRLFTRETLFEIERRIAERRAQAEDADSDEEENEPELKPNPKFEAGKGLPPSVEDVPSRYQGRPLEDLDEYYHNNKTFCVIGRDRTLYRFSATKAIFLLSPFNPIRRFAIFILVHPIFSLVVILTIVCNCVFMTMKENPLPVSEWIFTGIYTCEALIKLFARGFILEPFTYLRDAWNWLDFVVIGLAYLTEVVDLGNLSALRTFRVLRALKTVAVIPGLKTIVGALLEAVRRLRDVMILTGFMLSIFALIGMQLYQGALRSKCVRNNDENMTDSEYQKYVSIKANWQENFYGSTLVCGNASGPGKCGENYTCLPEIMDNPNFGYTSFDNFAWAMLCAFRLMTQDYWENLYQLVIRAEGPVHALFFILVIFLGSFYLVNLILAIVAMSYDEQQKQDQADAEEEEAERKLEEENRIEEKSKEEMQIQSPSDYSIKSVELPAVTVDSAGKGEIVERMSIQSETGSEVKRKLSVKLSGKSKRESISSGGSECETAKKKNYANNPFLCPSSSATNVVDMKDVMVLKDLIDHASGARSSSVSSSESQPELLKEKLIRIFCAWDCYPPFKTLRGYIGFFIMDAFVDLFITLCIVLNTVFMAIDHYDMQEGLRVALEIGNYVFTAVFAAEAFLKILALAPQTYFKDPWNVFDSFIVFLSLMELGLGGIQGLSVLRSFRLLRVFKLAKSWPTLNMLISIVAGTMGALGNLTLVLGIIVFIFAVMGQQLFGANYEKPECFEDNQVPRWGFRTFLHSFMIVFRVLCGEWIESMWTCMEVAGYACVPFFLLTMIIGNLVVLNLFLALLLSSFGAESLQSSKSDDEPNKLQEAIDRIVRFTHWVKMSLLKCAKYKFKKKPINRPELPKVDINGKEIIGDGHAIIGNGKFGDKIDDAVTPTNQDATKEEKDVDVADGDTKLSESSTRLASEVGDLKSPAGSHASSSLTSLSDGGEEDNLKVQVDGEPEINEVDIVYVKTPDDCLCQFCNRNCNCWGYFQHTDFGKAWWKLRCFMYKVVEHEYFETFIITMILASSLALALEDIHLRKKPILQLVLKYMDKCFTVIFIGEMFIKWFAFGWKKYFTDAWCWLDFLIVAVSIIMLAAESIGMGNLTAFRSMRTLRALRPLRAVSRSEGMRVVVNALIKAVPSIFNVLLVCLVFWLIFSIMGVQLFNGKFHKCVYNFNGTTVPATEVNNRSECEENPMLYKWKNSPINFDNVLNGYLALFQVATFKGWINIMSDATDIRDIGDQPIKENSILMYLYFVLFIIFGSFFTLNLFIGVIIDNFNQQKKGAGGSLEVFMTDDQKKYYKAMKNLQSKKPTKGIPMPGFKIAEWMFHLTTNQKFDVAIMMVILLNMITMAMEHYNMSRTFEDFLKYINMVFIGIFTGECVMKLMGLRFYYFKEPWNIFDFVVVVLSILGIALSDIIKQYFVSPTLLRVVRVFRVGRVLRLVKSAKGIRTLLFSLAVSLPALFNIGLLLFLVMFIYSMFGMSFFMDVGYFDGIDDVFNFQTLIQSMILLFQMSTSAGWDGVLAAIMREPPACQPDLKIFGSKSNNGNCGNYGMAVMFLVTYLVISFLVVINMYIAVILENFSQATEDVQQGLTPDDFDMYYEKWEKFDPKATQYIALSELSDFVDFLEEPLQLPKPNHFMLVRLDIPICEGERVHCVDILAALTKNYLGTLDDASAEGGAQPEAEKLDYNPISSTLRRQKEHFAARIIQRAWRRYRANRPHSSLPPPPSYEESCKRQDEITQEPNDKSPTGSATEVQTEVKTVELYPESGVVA

## CCC(=O)O[C@](Cc1ccccc1)(c1ccccc1)[C@H](C)CN(C)C [propoxyphene]
IK in GH3 cells
  Kd: 31 µM and ~30 µM

## CN1CC[C@]23c4c5ccc(O)c4O[C@H]2[C@@H](O)C=C[C@H]3[C@H]1C5 [morphine]
Ca2+ current (ICa); 350 μM, data not shown
  effect on ICa: no detectable effect
Na+ current (INa); 350 μM, data not shown
  effect on INa: no detectable effect
[1]; 350 μM, +30 mV
  effect on IK: no detectable effect

## C=CCN1CC[C@]23c4c5ccc(O)c4O[C@H]2C(=O)CC[C@@]3(O)[C@H]1C5 [naloxone]
[1]; data not shown
  effect on the ability of methadone to block IK: did not prevent

## (±)methadone
Na+ current (INa); 50 μM, repetitive depolarization to +10 mV at 4 Hz
  use-dependent effect on peak INa: no detectable effect
Na+ current (INa); 50 μM, repetitive depolarization to +70 mV, 5-ms pulses at 4 Hz, Hp -80 mV
  use-dependent reduction in peak INa amplitude: 20%

## CCC(=O)C(CC(C)[N+](C)(C)C)(c1ccccc1)c1ccccc1.[I-] (centres unmarked) [N-methyl-methadone]
Ca2+ current (ICa); 1 mM external
  effect on ICa when applied externally: no effect
Na+ current (INa); 1 mM external
  effect on INa when applied externally: no effect
[1]; 1 mM external
  effect on IK when applied externally: without effect; also recorded: no effect
[1]; internally applied, data not shown
  effect of changes in external pH on IK block: do not affect

## CCC(=O)C(CC(C)N(C)C)(c1ccccc1)c1ccccc1 (centres unmarked) [methadone]
Ca2+ current (ICa); -10 and -20 mV, 200 and 500 μM methadone
  ICa block at small depolarizations: Little or no block
[2]
  pKa: 9.64
pKa of methadone
  fraction of drug molecules charged at physiological pH: > 99%

## CCC(=O)C(C[C@H](C)N(C)C)(c1ccccc1)c1ccccc1 [(+)methadone]
[1]; [3]
  rate of block (K): 2.3 ms-1 mM-1
  rate of unblock (L): 0.142 ms-1

## CCC(=O)C(C[C@@H](C)N(C)C)(c1ccccc1)c1ccccc1 [(-)methadone]
[1]
  factor of increase of rate of block (K) from 10 to 20 °C: 2.1
[1]; 100 μM, 25-ms depolarization to +80 mV, 100K//200K
  steady state IK as % of control: 27%
[1]; [4]
  rate of block (K): 2.6 ms-1 mM-1
  rate of unblock (L): 0.096 ms-1
[1]; [3]
  rate of block (K): 2.2 ms-1 mM-1
  rate of unblock (L): 0.062 ms-1
[1]; [5]
  rate of block (K): 1.5 ms-1 mM-1
  rate of unblock (L): 0.060 ms-1
[1]; [6]
  rate of block (K): 3.2 ms-1 mM-1
  rate of unblock (L): 0.084 ms-1
